In PMC8555546, “Conductance stability and Na+ interaction with Shab K+ channels under low K+ conditions” (Channels, 2021):

Target: T1, Shab K+ channel (dShab 11) (Drosophila melanogaster, UniProt P17970)
T1 construct: Shab cDNA (dShab 11) by recombinant baculovirus in Sf9 insect cells; homotetramer
T1 sequence (P17970 1-1015): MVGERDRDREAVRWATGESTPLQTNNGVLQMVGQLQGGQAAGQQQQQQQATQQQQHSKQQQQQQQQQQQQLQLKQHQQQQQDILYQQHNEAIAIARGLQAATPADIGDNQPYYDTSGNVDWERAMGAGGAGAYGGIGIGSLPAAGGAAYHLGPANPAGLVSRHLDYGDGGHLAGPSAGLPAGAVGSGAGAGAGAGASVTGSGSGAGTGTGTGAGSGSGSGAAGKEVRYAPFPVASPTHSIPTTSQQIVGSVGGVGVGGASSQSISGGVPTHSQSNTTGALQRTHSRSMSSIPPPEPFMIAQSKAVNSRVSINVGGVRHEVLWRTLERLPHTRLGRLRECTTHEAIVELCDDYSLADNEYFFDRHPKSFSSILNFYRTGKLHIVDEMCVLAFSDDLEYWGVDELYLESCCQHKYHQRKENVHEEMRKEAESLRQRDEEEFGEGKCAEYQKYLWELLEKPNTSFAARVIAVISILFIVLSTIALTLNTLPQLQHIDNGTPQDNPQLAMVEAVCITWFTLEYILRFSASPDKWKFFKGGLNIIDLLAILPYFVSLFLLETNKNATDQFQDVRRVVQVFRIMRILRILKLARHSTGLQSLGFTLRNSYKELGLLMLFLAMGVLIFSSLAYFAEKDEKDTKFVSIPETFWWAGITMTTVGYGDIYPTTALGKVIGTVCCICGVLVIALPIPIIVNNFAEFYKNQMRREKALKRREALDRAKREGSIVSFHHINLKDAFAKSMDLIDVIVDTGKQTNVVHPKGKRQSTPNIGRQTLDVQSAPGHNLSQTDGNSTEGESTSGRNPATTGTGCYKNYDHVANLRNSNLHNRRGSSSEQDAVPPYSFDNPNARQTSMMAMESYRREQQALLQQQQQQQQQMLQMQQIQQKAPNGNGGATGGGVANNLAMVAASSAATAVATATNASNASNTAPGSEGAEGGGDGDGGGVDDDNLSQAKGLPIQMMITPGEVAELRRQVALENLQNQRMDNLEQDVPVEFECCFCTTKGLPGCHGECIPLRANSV
Experiment: whole-cell patch clamp, block of K+ current, Michaelis-Menten fit
Assay type: cell-based

Kd: 10.8 mM
SMILES: CC[N+](CC)(CC)CC [TEA]
